# Laboratory results reported in paper PMC5796108, “Effects of Acanthopanax senticosus on Brain Injury Induced by Simulated Spatial Radiation in Mouse Model Based on Pharmacokinetics and Comparative Proteomics” (International Journal of Molecular Sciences, 2018).
# Like-named read-outs stand apart in the source and are kept apart here.
# Assay: Pharmacokinetics of syringin and eleutheroside E in mice's serum after oral AS extract (HPLC, PKsolver)
# Assay type: in vivo, Kun-Ming mice
# Settings: oral AS extract 235.7 mg/kg; for MRT inf: read-out: MRT(0→∞)
# Description: The radiation lasted 30 min. […] The serum was preserved at −20 °C standby.
# The content of syringin and eleutheroside E in the samples for each time points was detected by HPLC. An Agilent 1100 series liquid chromatograph (Agilent Technologies, Santa Clara, CA, USA), equipped with a quaternary gradient pump and a UV detector was used. A HPLC method was developed using a reversed-phase C18 column (Agilent-TC, 250 mm × 4.6 mm, 5 μm i.d.) with the column temperature at 30 °C. […] The retention times are 6.041 min and 8.500 min for Syringin and eleutheroside E respectively. Contents of syringin and eleutheroside E were expressed in each case as nanograms of syringin and eleutheroside E per milliliter of mice serum.
# [1] = Radiation-AS-Treatment (60Co-γ, 4 Gy)
# [2] = male, Kun-Ming, mouse, po, 235.7 mg/kg, Normal-AS-Treatment
# [3] = male, Kun-Ming, mouse, po, 235.7 mg/kg, Radiation-AS-Treatment (60Co-γ, 4 Gy)
structure (smiles),measurement,setting,value
COc1cc([C@H]2OC[C@@H]3[C@@H]2CO[C@H]3c2cc(OC)c(O[C@@H]3O[C@H](CO)[C@@H](O)[C@H](O)[C@H]3O)c(OC)c2)cc(OC)c1O[C@@H]1O[C@H](CO)[C@@H](O)[C@H](O)[C@H]1O [Eleutheroside E],AUC(0→∞),Normal-AS-Treatment,9.93 × 10^3 ± 1.81 × 10^3 ng⋅h⋅mL^−1
same,CL,Normal-AS-Treatment,8.30 × 10^−2 ± 7.32 × 10^−3 L⋅h^−1⋅g^−1
same,Cmax,Normal-AS-Treatment,2.07 × 10^3 ± 6.61 × 10^2 ng⋅mL^−1
same,MRT(0→∞),Normal-AS-Treatment,14.8 ± 0.597 h
same,Tmax,Normal-AS-Treatment,0.5 ± 0.192 h
same,t1/2,Normal-AS-Treatment,17.2 ± 0.722 h
same,AUC(0→∞),[1],1.20 × 10^4 ± 3.63 × 10^3 ng⋅h⋅mL^−1
same,CL,[1],6.89 × 10^−2 ± 7.17 × 10^−3 L⋅h^−1⋅g^−1
same,Cmax,[1],2.11 × 10^3 ± 5.93 × 10^2 ng⋅mL^−1
same,MRT(0→∞),[1],21.1 ± 0.701 h
same,Tmax,[1],0.5 ± 0.321 h
same,t1/2,[1],2.51 × 10^1 ± 5.56 × 10^0 h
COc1cc(/C=C/CO)cc(OC)c1O[C@@H]1O[C@H](CO)[C@@H](O)[C@H](O)[C@H]1O [Syringin],CL,Normal-AS-Treatment,2.91 × 10^0 ± 5.65 × 10^−1 L⋅h^−1⋅g^−1
same,Vd,Normal-AS-Treatment,2.72 × 10^1 ± 8.73 × 10^−1 L⋅g^−1
same,CL,[1],1.54 × 10^0 ± 1.86 × 10^−1 L⋅h^−1⋅g^−1
same,Tmax,[1],0.5 ± 0.237 h
same,Vd,[1],2.17 × 10^1 ± 9.19 × 10^−1 L⋅g^−1
same,Tmax,"male, Kun-Ming, mouse, Normal-AS-Treatment, read-out: Tmax",0.5 h
same,AUC(0-inf),[2],283 ng·h/mL
same,half-life,[2],6.47 h
same,Cmax,"male, Kun-Ming, mouse, po, 235.7 mg/kg, Normal-AS-Treatment, read-out: Cmax",170 ng/mL
same,MRT inf,[2],4.58 h
same,AUC(0-inf),[3],534 ng·h/mL
same,half-life,[3],9.72 h
same,Cmax,"male, Kun-Ming, mouse, po, 235.7 mg/kg, Radiation-AS-Treatment (60Co-γ, 4 Gy), read-out: Cmax",212 ng/mL
same,MRT inf,[3],5.95 h
